For the assay, the target named is T1, G-actin (rabbit skeletal muscle) (Oryctolagus cuniculus, UniProt P68135).
T1 construct: gene ACTA1
Kind of assay: fluorescence of NPM reacted with free Cys374 after PtCl4^[…]- incubation; Scatchard approach, least-square fit. The class given is binding.

In paper PMC2364971, “A Spectroscopic Study on PtCl4^(2−) Binding to Rabbit Skeletal Muscle G-Actin” (Metal-Based Drugs, 1995) one finds Kd data, which are given here for one compound.

As a reminder, the Kd is the free concentration of one partner at which half of the binding sites on the other are occupied at equilibrium, for simple one-to-one binding. On to `[Cl][Pt-2]([Cl])([Cl])[Cl]` [PtCl4^2−], for which binding was put at a Kd of 100 nM.
